Assay results from patent US20250346613A1, “BORIC ACID PROTEASOME INHIBITOR AND USE THEREOF” (ARTIVILA BIOPHARMA, priority 2022, published 2025).

Tests used:
Format in all cases: cell-based
[1] = molecular target: T1, β5c subunit of the 20S proteasome (Homo sapiens, UniProt P20618+P28074); assay: Proteasome inhibitory activity, β5c subunit (Raji cells treated with compound, lysed, Suc-LLVY-AMC substrate); settings: proteasome from Raji cells incubated with compound 4 h
T1 construct: The proteasome tested in the present disclosure was derived from Raji cells; endogenous in cells; host or cells: Raji cells
From the text: (§1) In the present disclosure, the fluorescent peptide substrate Ac-Ala-Asn-Trp-AMC (abbreviated as Ac-ANW-AMC) and the […] kit containing a fluorescent peptide substrate Suc-Leu-Leu-Val-Tyr-AMC (abbreviated as Suc-LLVY-AMC) (Promega, Item No. G8660) were used to detect the activities of the β5i subunit and β5c subunit of the 20S proteasome, respectively.
(§2) The proteasome tested in the present disclosure was derived from Raji cells, the fluorescent substrate Ac-ANW-AMC was purchased from Roche company, and other reagents were purchased from Sigma company. The experimental system was divided into two parts of cell lysis system and enzyme reaction system. […] The starting concentration of the compound (inhibitor) was 1 μM. It was diluted in a 3-fold serial dilution to a total of 8 concentrations, that is, the administration concentration can be 1 μM, 0.333 μM, 0.111 μM . . . , respectively, and the specific experimental process was described below.
(§3) Raji cells (1×10^6 cells) cryopreserved in liquid nitrogen were thawed rapidly in a water bath at 37° C. The cell pellet was transferred to a 15 mL centrifuge tube, added with 9 mL of fresh medium (Gibco RPMI1640 added with 10% fetal bovine serum and 1% double antibiotics), centrifuged at 120 g for 5 min, inoculated to 25 mL cell culture flasks, and passaged once every 2-3 days.
(§4) The compound was weighed and dissolved in DMSO to a concentration of 10 mM. The compound was then sequentially diluted to concentrations of 200 μM, 66.67 μM, 22.22 μM, 7.41 μM, 2.47 μM, 0.82 μM, 0.27 μM, and 0.091 μM with fresh medium. Raji cells in a good growth status were inoculated into a 48-well cell culture plate at 7×10^5 cells/mL.
(§5) Raji cells in a good growth status were taken and counted. They were then inoculated to a 48-well cell culture plate at 7×10^5 cells/mL. Each 5 μL of the various concentrations of diluted compounds above were taken and added to the culture plate inoculated with cells, and the lowest concentration of compound was 0 μM. The drug bortezomib (Velcade) and ONX-0914 were used as the positive control compounds. All cells were incubated at 37° C. for 4 h.
(§6) The compound-treated cells were sequentially transferred into 1.5 mL centrifuge tubes, centrifuged at 10000 rpm for 2 min, and the supernatants were removed. The cell pellet was resuspended in 1 mL of PBS, centrifuged at 10000 rpm for 2 min, and the supernatant was removed. Cells were resuspended by adding 100 μL of cell lysate (50 mM Tris of pH 7.5, 150 mM NaCl, 5 mM MgCl2, 5 mM ATP, 1 mM DTT, 0.01% NP-40, 1 mM Digitonin, and Cocktail), placed in an ice bath for 30 min, and centrifuged at 13000 rpm for 10 min.
(§7) 2 mg of fluorescent peptide substrate AC-ANW-AMC was dissolved in 424.7 μL of DMSO to obtain an 8 mM stock solution, and stored at −20° C. The stock solution was diluted 100-fold to a final concentration of […] for use in the reaction system. The fluorescent peptide substrate Suc-LLVY-AMC was prepared according to the instructions of the Promega kit.
(§8) Each 20 μL of the prepared proteasome solution above was added to a 96-well white luciferase microplate and added with 25 μL of AC-ANW-AM substrate buffer solution (50 mM Tris of pH 7.5, 150 mM NaCl, 5 mM MgCl2, 5 mM ATP, 80 uM Ac-ANW-AMC and 1 mM DTT) and 25 μL of Suc-LLVY-AMC substrate buffer solution for 10 min of reaction at 37° C. in the dark. Fluorescence values were read at 345 nm/445 nm by using a fluorence microplate reader.
(§9) The data were exported and the inhibition rate in percentage was calculated according to the following formula: Inhibition rate=(maximum signal value-compound signal value)/(maximum signal value−blank signal value)×100%.
(§10) Where the maximum signal was obtained from cell lysates treated with DMSO only, and the blank signal was obtained from wells containing only lysates.

[2] = molecular target: T2, β5i subunit of the 20S proteasome (Homo sapiens, UniProt P20618+P28062); assay: Proteasome inhibitory activity, β5i subunit (Raji cells treated with compound, lysed, Ac-ANW-AMC substrate); settings: proteasome from Raji cells incubated with compound 4 h
T2 construct: The proteasome tested in the present disclosure was derived from Raji cells; endogenous in cells; host or cells: Raji cells
From the text: as §1, §2, §3, §4, §5, §6, §7, §8, §9, §10

MM.1S cell strain = assay: Inhibitory activity of cell strain (CellTiter-Glo); settings: Homo sapiens, MM1.S, 72 h incubation
Description: The cells used in this experiment were MM.1S cell strain and the detection reagent was CellTiter-Glo (Promega). […] The experimental process was described below. MM.1S cells in the logarithmic growth phase and in a good status were digested into individual cells by trypsin, centrifuged to remove the supernatant, and counted. Cells were diluted and 100 μL of cell suspension per well was added to a 96-well enzyme-coated plate at 1×10^5 cells per well. The wells containing only RPMI1640 complete medium were set as blank control. The 96-well plate was transferred to a 37° C. incubator containing 5% CO2 for 24 h of incubation.
The compound was accurately weighed and dissolved in DMSO to a concentration of 10^−2 M. 10 μL of compound was pipetted to 190 μL of DMSO to given a 5×10^−4 M compound. 6 μL of the compound (5×10^−5 M) was pipetted to a new 96-well microplate containing 194 μL of RPMI1640 complete medium and diluted in a 3-fold gradient dilution. 50 μL of the diluted compound was transferred to the 96-well microplate containing the cells such that the final compound concentrations were 5×10^−7 M, 1.67×10^−7 M, 5.55×10^−8 M, 1.85×10^−8 M, 6.17×10^−9 M, 2.06×10^−9 M, 6.86×10^−10 M, 2.29×10^−10 M, and 0 M. For the 0 M, no compound was added, and the same concentration of DMSO was added. The marketed drug bortezomib was used as a positive control. The 96-well microplate added with compounds was placed in the 37° C. incubator for 72 h of incubation.
At the predetermined detection time, the 96-well microplate to be detected was placed at room temperature, added with 40 μL of detection reagent (CellTiter-Glo) per well, and covered with a dark lid or piece of aluminium foil. The contents were mixed on an orbit oscillator for 10 min for complete cell lysis, with a vibration speed of 150 rpm. Luminescence values were detected on a multifunctional microplate reader (BioTek Synergy H1 Hybrid Multi-Mode Reade).
The data were exported and the percentage inhibition was calculated according to the following formula: Inhibition rate=(maximum signal value-compound signal value)/(maximum signal value−blank signal value)×100%, • wherein maximum signal was obtained from alone DMSO-treated cells, and blank signal was obtained from wells containing only culture medium.

| SMILES | IC50 [1] [nM] | IC50 [2] [nM] | IC50 (MM.1S cell strain) [nM] |
| --- | --- | --- | --- |
| Cc1ccc(C[C@H](NC(=O)C(C)C(=O)NC2CCCCC2)B(O)O)cc1 (stereo partly drawn) [Example 42, ((1R)-1-(3-(cyclohexylamino)-2-methyl-3-oxopropionamido)-2-(p-tolyl)ethyl)boric acid] | ≤ 50 | ≤ 50 | 50 to 200 |
| O=C(CC(=O)N[C@@H](Cc1coc2ccccc12)B(O)O)NCc1cccc(-c2ccccc2)c1 [Example 22, (R)-(1-(3-(([1,1′-biphenyl]-3-ylmethyl)amino)-3-oxopropionamido)-2-(benzofuran-3-yl)ethyl)boric acid] | ≤ 50 | ≤ 50 | ≤ 50 |
| COc1cccc(CNC(=O)C(C)C(=O)N[C@@H](Cc2ccc(C)cc2)B(O)O)c1 (stereo partly drawn) [Example 43, ((1R)-1-(3-((3-methoxybenzyl)amino)-2-methyl-3-oxopropionamido)-2-(p-tolyl)ethyl)boric acid] | ≤ 50 | ≤ 50 | ≤ 50 |
| CC(C)C[C@H](NC(=O)/C=C/C(=O)NCc1cccc(-c2ccccc2)n1)B(O)O [Example 13, (R,E)-(3-methyl-1-(4-oxo-4-(((6-phenylpyridin-2-yl)methyl)amino)but-2-enamido)butyl)boric acid] | 50 to 200 | 50 to 200 | 50 to 200 |
| Cc1ccc(C[C@H](NC(=O)C(C)C(=O)Nc2ccccc2)B(O)O)cc1 (stereo partly drawn) [Example 40, ((1R)-1-(2-methyl-3-oxo-3-(phenylamino)propionamido)-2-(p-tolyl)ethyl)boric acid] | 50 to 200 | ≤ 50 | 50 to 200 |
| O=C(/C=C/C(=O)N[C@@H](Cc1ccccc1)B(O)O)NCc1cccc(-c2ccccc2)n1 [Example 14, (R,E)-(1-(4-oxo-4-(((6-phenylpyridin-2-yl)methyl)amino)but-2-enamido)-2-phenylethyl)boric acid] | 50 to 200 | 50 to 200 | 50 to 200 |
| Cc1ccc(C[C@H](NC(=O)C(C)C(=O)NCc2ccccc2)B(O)O)cc1 (stereo partly drawn) [Example 38, ((1R)-1-(3-(benzylamino)-2-methyl-3-oxopropionamido)-2-(p-tolyl)ethyl)boric acid] | 50 to 200 | 50 to 200 | 200 to 500 |
| Cc1ccc(CNC(=O)/C=C/C(=O)N[C@@H](Cc2ccc(C)cc2)B(O)O)cc1 [Example 10] | 50 to 200 | 50 to 200 | 200 to 500 |
| COc1cccc(CNC(=O)C(C)C(=O)N[C@@H](Cc2coc3ccccc23)B(O)O)c1 (stereo partly drawn) [Example 9] | ≤ 50 | ≤ 50 | ≤ 50 |
| COc1cccc(CNC(=O)C(C)C(=O)N[C@@H](Cc2ccc(-c3ccccc3)cc2)B(O)O)c1 (stereo partly drawn) [Example 36, ((1R)-2-([1,1′-biphenyl]-4-yl)-1-(3-((3-methoxybenzyl)amino)-2-methyl-3-oxopropionamido)ethyl)boric acid] | ≤ 50 | ≤ 50 | ≤ 50 |
| COc1cccc(CNC(=O)C(CC2CC2)C(=O)N[C@@H](Cc2ccccc2)B(O)O)c1 (stereo partly drawn) [Example 3, ((1R)-1-(2-(cyclopropylmethyl)-3-((3-methoxybenzyl)amino)-3-oxopropionylamimo)-2-phenylethyl)boric acid] | ≤ 50 | ≤ 50 | ≤ 50 |

The remaining lines, values ahead:

| IC50 [1] [nM] | IC50 [2] [nM] | IC50 (MM.1S cell strain) [nM] | SMILES |
| --- | --- | --- | --- |
| ≤ 50 | ≤ 50 | ≤ 50 | COc1cccc(CNC(=O)C(CC2CCCCC2)C(=O)N[C@@H](Cc2coc3ccccc23)B(O)O)c1 (stereo partly drawn) [Example 84, ((1R)-2-(benzofuran-3-yl)-1-(2-(cyclohexylmethyl)-3-((3-methoxybenzyl)amino)-3-oxopropionamido)ethyl)boroic acid] |
| ≤ 50 | ≤ 50 | ≤ 50 | COc1cccc(CNC(=O)CC(=O)N[C@@H](CC(C)C)B(O)O)c1 [Example 48, (R)-(1-(3-((3-methoxybenzyl)amino)-3-oxopropionamido)-3-methylbutyl)boric acid] |
| ≤ 50 | ≤ 50 | ≤ 50 | CC(C)C(C(=O)NCc1ccc(Cl)cc1Cl)C(=O)N[C@@H](Cc1coc2ccccc12)B(O)O (stereo partly drawn) [Example 89, ((1R)-2-(benzofuran-3-yl)-1-(2-((2,4-dichlorobenzyl)carbamoyl)-3-methylbutanamido)ethyl)boric acid] |
| 50 to 200 | ≤ 50 | 50 to 200 | Cc1ccc(C[C@H](NC(=O)C(C(=O)NCc2ccc(Cl)cc2Cl)C(C)C)B(O)O)cc1 (stereo partly drawn) [Example 88, ((1R)-1-(2-((2,4-dichlorobenzyl)carbamoyl)-3-methylbutanamido)-2-(p-tolyl)ethyl)boric acid] |
| ≤ 50 | ≤ 50 | ≤ 50 | COc1cccc(CNC(=O)CC(=O)N[C@@H](Cc2coc3ccccc23)B(O)O)c1 [Example 46, (R)-(2-(benzofuran-3-yl)-1-(3-((3-methoxybenzyl)amino)-3-oxopropionamido)ethyl)boric acid] |
| ≤ 50 | ≤ 50 | ≤ 50 | CC(C(=O)NCc1cccc(C(F)(F)F)c1)C(=O)N[C@@H](Cc1coc2ccccc12)B(O)O (stereo partly drawn) [Example 77, ((1R)-2-(benzofuran-3-yl)-1-(2-methyl-3-oxo-3-((3-(trifluoromethyl)benzyl)amino)propionamido)ethyl)boric acid] |
| ≤ 50 | ≤ 50 | ≤ 50 | COc1cccc(CNC(=O)C(CC2CC2)C(=O)N[C@@H](Cc2ccc(C)cc2)B(O)O)c1 (stereo partly drawn) [Example 80, ((1R)-1-(2-(cyclopropylmethyl)-3-((3-methoxybenzyl)amino)-3-oxopropionamido)-2-(p-tolyl)ethyl)boric acid] |
